Test system: immunocompetent FVB mice
Assay: Tolerability study in immunocompetent mice
Type: in vivo
From the text: Five- to six-week-old immunocompetent, female FVB mice were purchased from Charles River Laboratories (Sulzfeld, Germany). After an acclimatization period of at least 7 days, the mice (n = 5 per group) were intravenously injected with 30 kBq [^225Ac]Ac-SibuDAB or 30 kBq [^225Ac]Ac-PSMA-617 and additional mice (n = 7 per group) remained untreated as controls. Mice were monitored by measuring their body mass and potential signs of pain or unease three times a week (Supplementary Material: Section S7). The mice were euthanized on Day 10, Day 28 or on Day 56, respectively, and variable parameters were assessed from blood and tissue samples.
Hematological analysis was performed using blood samples taken by cardiac puncture immediately after euthanasia. Blood and bone marrow smears were prepared and stained using the Pappenheim protocol. The assessment was carried out by a board-certified veterinary anatomic pathologist (AnaPath Services GmbH, Liestal, Switzerland). Blood plasma parameters were determined in plasma after centrifugation of blood samples obtained shortly before euthanasia (Supplementary Material: Section S7).
Tissue sections of formalin-fixed paraffin-embedded (FFPE) spleen, salivary glands and kidneys were prepared and stained with hematoxylin and eosin (H&E) by AnaPath Services GmbH (Liestal, Switzerland). The tissues were analyzed by a board certified veterinary pathologist using a pre-defined scoring system (Supplementary Material: Section S7). […]
The percentage of radioligand bound to mouse or human plasma (A bound) was plotted against the molar ratios of MSA/HSA to radioligand and fitted with a nonlinear regression curve (specific binding with Hill slope, Bmax set to 100%) using GraphPad Prism software (version 8) to obtain the half maximum binding (B 50).
Results: The results are reported in the main article.
Purpose: A tolerability study with normal, immunocompetent FVB mice was con-ducted in order to assess potential side effects to the bone marrow, spleen, salivary glands and kidneys after the application of high activities of the 225Ac-labeled PSMA radioligands.
Methods: Monitoring Body Mass and Signs of Unease: Mice were monitored by meas-uring their body mass (BM) three times a week. The body masses were expressed as the relative body mass, defined as [BMx/BM0], where BMx is the body mass in grams on a given Day x and BM0 is the body mass in grams on Day 0. Endpoint criteria, defined as (i) >15% loss in body mass, (ii) signs of unease and pain or a combination thereof based on a scoring system, were not reached in this stu dy.
Hematology: Blood cell counts were determined in blood samples taken by cardiac puncture immediately after euthanasia and collected in EDTA tubes (Microvette® 100 K3 EDTA, Sarstedt, Germany). Leukocyte, lymphocyte, erythrocyte and thrombocyte counts as well as hemoglobin and hematocrit values were determined using a hematology ana-lyzer (VetScan HM5, Abaxis, United States). Blood smears were prepared on glass slides with cardiac blood. The bone marrow was collected from the femur, diluted in FCS/H2O (2:1 v/v) and smeared onto microscopy slides using a paintbrush. The slides were stained with a May Grünwald solution and subsequently with diluted Giemsa solution using the Pappenheim method and covered with coverslips using mounting medium (Pertex).
The assessment of potential morphological ch anges of the blood cells and counting of the subgroups of leukocytes was performed by a board-certified veterinary pathologist (Ana-Path Services GmbH, Liestal, Switzerland).
Histopathological Analysis: Spleen, salivary glands and kidneys were formalin-fixed and paraffin-embedded. Tissue sections were stained with hematoxylin & eosin (H&E) […]
Blood Plasma Parameters: Blood plasma parameters were determined in plasma ob-tained from centrifuged retrobulbar blood samples collected in lithium-heparin tubes (Mi-crovette® 200 LH, SARSTEDT). The concentrations of blood urea nitrogen (BUN), alkaline […]

CC(C)Cc1ccc(C(C)C(=O)NC(CCN)C(=O)NCCCCC(NC(=O)CN2CCN(CC(=O)[O-])CCN(CC(=O)[O-])CCN(CC(=O)[O-])CC2)C(=O)NCC2CCC(C(=O)NC(Cc3ccc4ccccc4c3)C(=O)NCCCCC(NC(=O)NC(CCC(=O)O)C(=O)O)C(=O)O)CC2)cc1.[225Ac+3] (centres unmarked) [[^225Ac]Ac-SibuDAB]
Tolerability (body mass) (30 kBq per mouse, until Day 56): well tolerated | Kidneys: Hyperplasia/hypertrophy, tubular, incidence (Day 10, 30 kBq): 0 | Kidneys: Hyperplasia/hypertrophy, tubular, score average (Day 10, 30 kBq): 0.0 | Kidneys: Hypertrophy/hyperplasia, tubular with ectasia, incidence (Day 10, 30 kBq): 0 | Kidneys: Hypertrophy/hyperplasia, tubular with ectasia, score average (Day 10, 30 kBq): 0.0 | Kidneys: Inflammatory cells, interstitium, incidence (Day 10, 30 kBq): 0 | Kidneys: Inflammatory cells, interstitium, score average (Day 10, 30 kBq): 0.0 | Kidneys: Inflammatory cells, pelvis, incidence (Day 10, 30 kBq): 0 | Kidneys: Inflammatory cells, pelvis, score average (Day 10, 30 kBq): 0.0 | Kidneys: Mineralization, papilla, incidence (Day 10, 30 kBq): 0 | Kidneys: Mineralization, papilla, score average (Day 10, 30 kBq): 0.0 | Kidneys: Tubular basophilia, incidence (Day 10, 30 kBq): 0 | Kidneys: Tubular basophilia, score average (Day 10, 30 kBq): 0.0 | Salivary glands: Ductal hyperplasia with inflammatory cells, incidence (Day 10, 30 kBq): 0 | Salivary glands: Ductal hyperplasia with inflammatory cells, score average (Day 10, 30 kBq): 0.0 | Salivary glands: Hypertrophy acinar, sublingual, incidence (Day 10, 30 kBq): 0 | Salivary glands: Hypertrophy acinar, sublingual, score average (Day 10, 30 kBq): 0.0 | Salivary glands: Mononuclear cell foci, incidence (Day 10, 30 kBq): 1 | Salivary glands: Mononuclear cell foci, score average (Day 10, 30 kBq): 1.0 | Salivary glands: Necrosis, multifocal, serous acinar cells, incidence (Day 10, 30 kBq): two out of five | Salivary glands: Necrosis, multifocal, serous acinar cells, score average (Day 10, 30 kBq): 1.0 | Salivary glands: Vacuolation, incidence (Day 10, 30 kBq): 1 | Salivary glands: Vacuolation, score average (Day 10, 30 kBq): 1.0 | Spleen: Extramedullary hematopoiesis, incidence (Day 10, 30 kBq): 5 | Spleen: Extramedullary hematopoiesis, score average (Day 10, 30 kBq): 1.2 | Spleen: Hyperplasia, lymphoid, incidence (Day 10, 30 kBq): 1 | Spleen: Hyperplasia, lymphoid, score average (Day 10, 30 kBq): 1.0 | Spleen: Pigment, incidence (Day 10, 30 kBq): 5 | Spleen: Pigment, score average (Day 10, 30 kBq): 1.0 | mice with relative increase of neutrophilic blasts (metamyelocytes) in peripheral blood (Day 10, 30 kBq): one out of five | myelopoiesis in bone marrow smears (group value) (Day 10, 30 kBq): 66% | Salivary glands: Necrosis, multifocal, serous acinar cells, incidence (Day 10, 30 kBq, listed as [225Ac]Ac-SibuDAB): 2 | Bone marrow % E (Day 10, mouse M1): 30% | Bone marrow % M (Day 10, mouse M1): 70% | Bone marrow smear, Notes (Day 10, mouse M1): More blasts, neutrophilic row | Bone marrow % E (Day 10, mouse M2): 50% | Bone marrow % M (Day 10, mouse M2): 50% | Bone marrow % E (Day 10, mouse M3): 40% | Bone marrow % M (Day 10, mouse M3): 60% | Blood smear, Notes (Day 10, mouse M4): More neutrophilic blasts (Metamyelocyte) | Bone marrow % E (Day 10, mouse M4): 30% | Bone marrow % M (Day 10, mouse M4): 70% | Bone marrow smear, Notes (Day 10, mouse M4): More blasts, neutrophilic row | Bone marrow % E (Day 10, mouse M5): 20% | Bone marrow % M (Day 10, mouse M5): 80% | Bone marrow smear, Notes (Day 10, mouse M5): More blasts, neutrophilic row | Albumin concentration in blood plasma (Day 28, 30 kBq): 26 ± 1 g/L | Blood urea nitrogen (Day 28, 30 kBq): 9.1 ± 1.1 mmol/L | Erythrocyte counts (Day 28, 30 kBq): 8.7 ± 0.3 × 10^12/L | Hematocrit (Day 28, 30 kBq): 43 ± 1% | Hemoglobin (Day 28, 30 kBq): 11.2 ± 0.5 g/dL | Kidneys: Hyperplasia/hypertrophy, tubular, incidence (Day 28, 30 kBq): 0 | Kidneys: Hyperplasia/hypertrophy, tubular, score average (Day 28, 30 kBq): 0.0 | Kidneys: Hypertrophy/hyperplasia, tubular with ectasia, incidence (Day 28, 30 kBq): 0 | Kidneys: Hypertrophy/hyperplasia, tubular with ectasia, score average (Day 28, 30 kBq): 0.0 | Kidneys: Inflammatory cells, interstitium, incidence (Day 28, 30 kBq): 1 | Kidneys: Inflammatory cells, interstitium, score average (Day 28, 30 kBq): 1.0 | Kidneys: Inflammatory cells, pelvis, incidence (Day 28, 30 kBq): 2 | Kidneys: Inflammatory cells, pelvis, score average (Day 28, 30 kBq): 1.0 | Kidneys: Mineralization, papilla, incidence (Day 28, 30 kBq): 0 | Kidneys: Mineralization, papilla, score average (Day 28, 30 kBq): 0.0 | Kidneys: Tubular basophilia, incidence (Day 28, 30 kBq): 0 | Kidneys: Tubular basophilia, score average (Day 28, 30 kBq): 0.0 | Salivary glands: Ductal hyperplasia with inflammatory cells, incidence (Day 28, 30 kBq): 0 | Salivary glands: Ductal hyperplasia with inflammatory cells, score average (Day 28, 30 kBq): 0.0 | Salivary glands: Hypertrophy acinar, sublingual, incidence (Day 28, 30 kBq): 1 | Salivary glands: Hypertrophy acinar, sublingual, score average (Day 28, 30 kBq): 1.0 | Salivary glands: Mononuclear cell foci, incidence (Day 28, 30 kBq): 3 | Salivary glands: Mononuclear cell foci, score average (Day 28, 30 kBq): 1.0 | Salivary glands: Necrosis, multifocal, serous acinar cells, incidence (Day 28, 30 kBq): completely absent | Salivary glands: Necrosis, multifocal, serous acinar cells, score average (Day 28, 30 kBq): 0.0 | Salivary glands: Vacuolation, incidence (Day 28, 30 kBq): 0 | Salivary glands: Vacuolation, score average (Day 28, 30 kBq): 0.0 | Spleen: Extramedullary hematopoiesis, incidence (Day 28, 30 kBq): 5 | Spleen: Extramedullary hematopoiesis, score average (Day 28, 30 kBq): 1.8 | Spleen: Hyperplasia, lymphoid, incidence (Day 28, 30 kBq): 5 | Spleen: Hyperplasia, lymphoid, score average (Day 28, 30 kBq): 1.2 | Spleen: Pigment, incidence (Day 28, 30 kBq): 5 | Spleen: Pigment, score average (Day 28, 30 kBq): 2.0 | Salivary glands: Necrosis, multifocal, serous acinar cells, incidence (Day 28, 30 kBq, listed as [225Ac]Ac-SibuDAB): 0 | Bone marrow % E (Day 28, mouse M1): 40% | Bone marrow % M (Day 28, mouse M1): 60% | Bone marrow % E (Day 28, mouse M2): 50% | Bone marrow % M (Day 28, mouse M2): 50% | Bone marrow % E (Day 28, mouse M3): 40% | Bone marrow % M (Day 28, mouse M3): 60% | Bone marrow % E (Day 28, mouse M4): 50% | Bone marrow % M (Day 28, mouse M4): 50% | Bone marrow % E (Day 28, mouse M5): 50% | Bone marrow % M (Day 28, mouse M5): 50% | Kidneys: Hyperplasia/hypertrophy, tubular, incidence (Day 56, 30 kBq): 1 | Kidneys: Hyperplasia/hypertrophy, tubular, score average (Day 56, 30 kBq): 1.0 | Kidneys: Hypertrophy/hyperplasia, tubular with ectasia, incidence (Day 56, 30 kBq): 0 | Kidneys: Hypertrophy/hyperplasia, tubular with ectasia, score average (Day 56, 30 kBq): 0.0 | Kidneys: Inflammatory cells, interstitium, incidence (Day 56, 30 kBq): 1 | Kidneys: Inflammatory cells, interstitium, score average (Day 56, 30 kBq): 1.0 | Kidneys: Inflammatory cells, pelvis, incidence (Day 56, 30 kBq): 1 | Kidneys: Inflammatory cells, pelvis, score average (Day 56, 30 kBq): 1.0 | Kidneys: Mineralization, papilla, incidence (Day 56, 30 kBq): 0 | Kidneys: Mineralization, papilla, score average (Day 56, 30 kBq): 0.0 | Kidneys: Tubular basophilia, incidence (Day 56, 30 kBq): 2 | Kidneys: Tubular basophilia, score average (Day 56, 30 kBq): 1.0 | Salivary glands: Ductal hyperplasia with inflammatory cells, incidence (Day 56, 30 kBq): 0 | Salivary glands: Ductal hyperplasia with inflammatory cells, score average (Day 56, 30 kBq): 0.0 | Salivary glands: Hypertrophy acinar, sublingual, incidence (Day 56, 30 kBq): 0 | Salivary glands: Hypertrophy acinar, sublingual, score average (Day 56, 30 kBq): 0.0 | Salivary glands: Mononuclear cell foci, incidence (Day 56, 30 kBq): 2 | Salivary glands: Mononuclear cell foci, score average (Day 56, 30 kBq): 1.0 | Salivary glands: Necrosis, multifocal, serous acinar cells, incidence (Day 56, 30 kBq): 0 | Salivary glands: Necrosis, multifocal, serous acinar cells, score average (Day 56, 30 kBq): 0.0 | Salivary glands: Vacuolation, incidence (Day 56, 30 kBq): 0 | Salivary glands: Vacuolation, score average (Day 56, 30 kBq): 0.0 | Spleen: Extramedullary hematopoiesis, incidence (Day 56, 30 kBq): 5 | Spleen: Extramedullary hematopoiesis, score average (Day 56, 30 kBq): 1.8 | Spleen: Hyperplasia, lymphoid, incidence (Day 56, 30 kBq): 0 | Spleen: Hyperplasia, lymphoid, score average (Day 56, 30 kBq): 0.0 | Spleen: Pigment, incidence (Day 56, 30 kBq): 5 | Spleen: Pigment, score average (Day 56, 30 kBq): 2.0 | Bone marrow % E (Day 56, mouse M1): 40% | Bone marrow % M (Day 56, mouse M1): 60% | Bone marrow % E (Day 56, mouse M2): 30% | Bone marrow % M (Day 56, mouse M2): 70% | Bone marrow % E (Day 56, mouse M3): 40% | Bone marrow % M (Day 56, mouse M3): 60% | Bone marrow % E (Day 56, mouse M4): 40% | Bone marrow % M (Day 56, mouse M4): 60% | Bone marrow % E (Day 56, mouse M5): 40% | Bone marrow % M (Day 56, mouse M5): 60%
